Results reported in patent publication US20260374739A1, “SMALL MOLECULAR WEIGHT CHEMICAL COMPOUND TO ANTAGONIZE EPH-EPHRIN TETRAMERIZATION AND INHIBIT BIDIRECTIONAL SIGNALING” (THE BOARD OF REGENTS OF THE UNIVERSITY OF TEXAS SYSTEM, priority 2022, published 2026).
Where “and” joins values, the source holds several entries; their conditions need not be identical. Equal values may be shown once. Entries after “also recorded” stand apart in the source; their conditions may differ. Marks after values point to notes of the source that are not given here.

Tests used:
EphrinB2-EphB2 [1] = biological target: T1, EphrinB2-EphB2 (Homo sapiens, UniProt P29323); assay: Octet tetramerization inhibition, immobilized human EphrinB2 binding to 50 nM soluble human EphB2
T1 construct: soluble human EphB1-His, EphB2-His, and EphB4-His ectodomains; commercially available human EphrinB1-Fc (EB1), EphrinB2-Fc (EB2), and EphrinB3-Fc (EB3) ectodomain proteins; purchased
T1 sequence (P29323 19-543 limits assumed): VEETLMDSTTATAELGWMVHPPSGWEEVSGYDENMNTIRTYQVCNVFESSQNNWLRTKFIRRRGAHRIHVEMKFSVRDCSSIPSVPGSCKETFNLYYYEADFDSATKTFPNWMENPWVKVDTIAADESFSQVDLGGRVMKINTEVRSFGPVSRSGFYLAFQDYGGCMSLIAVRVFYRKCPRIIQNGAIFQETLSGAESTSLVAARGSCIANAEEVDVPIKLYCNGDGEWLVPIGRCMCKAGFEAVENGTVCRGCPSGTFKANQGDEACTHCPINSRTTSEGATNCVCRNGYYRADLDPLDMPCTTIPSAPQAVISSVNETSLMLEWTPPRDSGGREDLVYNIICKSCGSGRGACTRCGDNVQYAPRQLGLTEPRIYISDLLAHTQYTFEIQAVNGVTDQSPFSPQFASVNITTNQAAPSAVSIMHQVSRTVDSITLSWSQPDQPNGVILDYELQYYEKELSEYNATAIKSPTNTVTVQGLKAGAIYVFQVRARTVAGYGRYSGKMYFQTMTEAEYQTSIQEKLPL

EphrinB2-EphB1 = biological target: T2, EphrinB2-EphB1 (Homo sapiens, UniProt P54762); assay: Octet 80 sec association/500 sec dissociation, immobilized human EphrinB2-Fc binding to soluble human EphB1-His; conditions: immobilized human EphrinB2, 25 nM soluble human EphB1; for EphB1 Inhibition Percent, Inhibition of Association-Dissociation: at 3.2 μM and 580 seconds; for EphB1 Inhibition Percent, Inhibition of Association ONLY: at 3.2 μM and 80 seconds
T2 construct: soluble human EphB1-His, EphB2-His, and EphB4-His ectodomains; commercially available human EphrinB1-Fc (EB1), EphrinB2-Fc (EB2), and EphrinB3-Fc (EB3) ectodomain proteins; purchased
T2 sequence (P54762 18-540 limits assumed): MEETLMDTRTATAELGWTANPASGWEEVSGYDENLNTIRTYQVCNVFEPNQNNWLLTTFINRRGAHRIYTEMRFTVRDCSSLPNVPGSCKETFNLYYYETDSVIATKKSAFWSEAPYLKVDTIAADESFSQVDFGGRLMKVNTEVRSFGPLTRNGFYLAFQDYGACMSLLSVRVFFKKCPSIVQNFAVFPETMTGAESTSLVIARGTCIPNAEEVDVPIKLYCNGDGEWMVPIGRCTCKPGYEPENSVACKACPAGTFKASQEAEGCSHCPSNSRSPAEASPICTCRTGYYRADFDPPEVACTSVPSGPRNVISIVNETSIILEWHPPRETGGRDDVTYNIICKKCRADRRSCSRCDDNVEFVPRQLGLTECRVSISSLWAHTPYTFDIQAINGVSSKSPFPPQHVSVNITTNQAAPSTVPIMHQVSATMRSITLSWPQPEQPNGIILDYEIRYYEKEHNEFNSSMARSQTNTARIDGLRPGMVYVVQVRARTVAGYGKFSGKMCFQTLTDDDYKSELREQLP
In short: (§1)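 EphrinB2-Fc captured on AHC biosensors, then soluble His-tagged EphB ectodomain (25 nM for % inhibition runs) associated 80 s and dissociated 500 s in PBS, 0.05% Tween-20, 1% DMSO ± compound. Compounds tested at 0.1–3.2 μM with a 10 μM max standard; IC50 from AUC of full traces or at 75 s and 135 s.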

EphrinB2-EphB2 [2] = biological target: T1, EphrinB2-EphB2; assay: Octet 80 sec association/500 sec dissociation, immobilized human EphrinB2-Fc binding to soluble human EphB2-His; conditions: immobilized human EphrinB2, 25 nM soluble human EphB2; for EphB2 Inhibition Percent, Inhibition of Association-Dissociation: at 3.2 μM and 580 seconds; for EphB2 Inhibition Percent, Inhibition of Association ONLY: at 3.2 μM and 80 seconds
In short: as §1

EphrinB2-EphB4 = biological target: T3, EphrinB2-EphB4 (Homo sapiens, UniProt P54760); assay: Octet 80 sec association/500 sec dissociation, immobilized human EphrinB2-Fc binding to soluble human EphB4-His; conditions: for EphB4 Inhibition Percent, Inhibition of Association-Dissociation: at 3.2 μM and 580 seconds; for EphB4 Inhibition Percent, Inhibition of Association-Dissociation / EphB4 Inhibition Percent, Inhibition of Association ONLY: immobilized human EphrinB2, 25 nM soluble human EphB4; for EphB4 Inhibition Percent, Inhibition of Association ONLY: at 3.2 μM and 80 seconds
T3 construct: soluble human EphB1-His, EphB2-His, and EphB4-His ectodomains; commercially available human EphrinB1-Fc (EB1), EphrinB2-Fc (EB2), and EphrinB3-Fc (EB3) ectodomain proteins; purchased
T3 sequence (P54760 16-539 limits assumed): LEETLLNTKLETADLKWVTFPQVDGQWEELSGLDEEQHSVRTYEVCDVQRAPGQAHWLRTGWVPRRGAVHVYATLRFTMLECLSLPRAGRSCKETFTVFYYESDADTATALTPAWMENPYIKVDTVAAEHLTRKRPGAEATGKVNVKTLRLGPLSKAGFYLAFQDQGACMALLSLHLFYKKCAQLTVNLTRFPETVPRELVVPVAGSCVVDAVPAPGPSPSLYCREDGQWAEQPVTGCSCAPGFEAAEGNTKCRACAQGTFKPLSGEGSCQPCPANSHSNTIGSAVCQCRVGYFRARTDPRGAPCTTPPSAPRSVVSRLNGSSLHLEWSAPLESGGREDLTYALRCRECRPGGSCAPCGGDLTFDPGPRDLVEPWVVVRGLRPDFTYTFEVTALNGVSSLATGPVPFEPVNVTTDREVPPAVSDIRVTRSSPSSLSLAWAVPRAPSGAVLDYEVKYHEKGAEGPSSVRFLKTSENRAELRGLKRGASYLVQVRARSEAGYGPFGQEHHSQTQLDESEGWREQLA
In short: as §1

[3] = Absolute AUC/IC50, Table A, EphrinB2-EphB2
[4] = Absolute Association IC50 (300 sec), Table A, EphrinB2-EphB2
[5] = Absolute Dissociation IC50 (450 sec), Table A, EphrinB2-EphB2
[6] = Relative AUC/IC50, Table A, EphrinB2-EphB2, compound 7: association only
[7] = Relative Association IC50 (300 sec), Table A, EphrinB2-EphB2
[8] = Relative Dissociation IC50 (450 sec), Table A, EphrinB2-EphB2
[9] = tetramerization inhibitor IC50 (relative), association step, surmountable tetramer

Compound | disruption of unsurmountable tetramer (EphrinB2-EphB2 [1]; 0.8-3.2 μM, listed as A19-L) | IC50 (EphrinB2-EphB2 [1]; [3]) [nM] | IC50 (EphrinB2-EphB2 [1]; [4]) [nM] | IC50 (EphrinB2-EphB2 [1]; [5]) [nM] | IC50 (EphrinB2-EphB2 [1]; [6]) [nM] | IC50 (EphrinB2-EphB2 [1]; [7]) [nM] | IC50 (EphrinB2-EphB2 [1]; [8]) [nM] | IC50 (EphrinB2-EphB2 [1]; [9]) [nM] | EphB1 Inhibition Percent, Inhibition of Association-Dissociation (EphrinB2-EphB1) | EphB2 Inhibition Percent, Inhibition of Association-Dissociation (EphrinB2-EphB2 [2]) | EphB4 Inhibition Percent, Inhibition of Association-Dissociation (EphrinB2-EphB4) | EphB2 Inhibition Percent, Inhibition of Association ONLY (EphrinB2-EphB2 [2]) | selectivity among EphrinB2-EphB1/B2/B4 (EphrinB2-EphB4; 3.2 μM) | EphB4 Inhibition Percent, Inhibition of Association ONLY (EphrinB2-EphB4) | EphB1 Inhibition Percent, Inhibition of Association ONLY (EphrinB2-EphB1)
O=C(c1ccc(O)c2ncccc12)N1CCOCC1 [Compound 53, (8-hydroxyquinolin-5-yl)(morpholino)methanone] | slight ability to disrupt the unsurmountable tetramer; also recorded: able to inhibit a small amount of the EphrinB2-EphB2 unsurmountable tetramer | 2820 | 3020 | 2340 | 1860 | 1950 | 1620 | ~1600 | 38.7% and 26.3% | 65.3% and 40.6% | 16.8% and 12.5% | – | – | – | –
Nc1ccc(N2CCN(Cc3ccc(O)c4ncccc34)CC2)cc1 [Compound 39, 5-((4-(4-aminophenyl)piperazin-1-yl)methyl)quinolin-8-ol] | – | 3090 | 3020 | 2830 | 1700 | 2750 | 2250 | ~2000 | 16.9% and 8.0% | 46.4% and 45.6% | 6.9% and 5.5% | 33.9% and 31.2% | less action toward EphB4 and EphB1 but high specificity for EphB2 | 0.4% and 0% | –
O=[N+]([O-])c1ccc(N2CCN(Cc3ccc(O)c4ncccc34)CC2)cc1 [Compound 38, 8-hydroxy-5-((4-(4-nitrophenyl)piperazin-1-ium-1-yl)methyl)quinolin-1-ium chloride] | – | 2180 | 2290 | 1860 | 1200 | 1230 | 1470 | – | 43.2% | 72.1% | 17.5% | 54.3% | – | 9.6% | 24.8%
Cc1ccc2c(CN3CCN(c4ccc(Br)cc4)CC3)ccc(O)c2n1 [Compound 61, 5-((4-(4-bromophenyl)piperazin-1-ium-1-yl)methyl)-8-hydroxy-2-methylquinolin-1-ium chloride] | – | > 1600 | > 1600 | > 1600 | > 1600 | > 1600 | > 1600 | – | 11.3% | 0*% | 0*% | 0*% | – | 0*% | 8.1%
Oc1ccc(CN2CCN(c3ccc(I)cc3)CC2)c2cccnc12 [Compound 32] | – | > 1600 | > 1600 | > 1600 | 790 | 1400 | 1000 | – | 40.5% | 78.2% | 42.5% | 63.9% | – | 33.8% | 24.5%
O=S1(=O)CCN(Cc2cc(I)c(O)c3ncccc23)CC1 [Compound 19, 4-((8-hydroxy-7-iodoquinolin-1-ium-5-yl)methyl)thiomorpholin-4-ium 1,1-dioxide chloride] | – | > 1600 | 1600 | 1410 | 690 | 830 | 810 | – | 50.1% | 71.4% | 36.2% | 53.7% | – | 12.9% | 33.9%
Oc1ccc(CN2CCN(c3ccccc3)CC2)c2cccnc12 [Compound 23, 8-hydroxy-5-((4-phenylpiperazin-1-ium-1-yl)methyl)quinolin-1-ium chloride] | – | > 1600 | > 1600 | > 1600 | > 1600 | > 1600 | > 1600 | – | 41.2% and 24.8% | 79.1% and 49% | 26.7% and 17.9% | 66.0% and 38.5% | – | 23.1% and 12.1% | 30.8% and 16.2%
